Measured values as given in patent publication US20240059685A1, “PIEZO1 AGONISTS FOR THE PROMOTION OF BONE FORMATION” (BIOVENTURES, LLC, priority 2019, published 2024).
Entries after “also recorded” stand apart in the source; their conditions may differ.

Tests used:
Piezo1 = molecular target: T1, Piezo1 (Mus musculus, UniProt E2JF22); assay: Activation of Piezo1 in MLO-Y4 cells, overall conclusion from gene expression and calcium influx; format: cell-based, murine
T1 construct: To identify Piezo1 stimulators, we treated MLO-Y4 cells with compounds; endogenous in cells; host or cells: MLO-Y4 (murine osteocyte-like cell line); control sh-Luc cells, with sh-Piezo1 knock-down cells as the specificity control
T1 sequence (E2JF22 whole entry): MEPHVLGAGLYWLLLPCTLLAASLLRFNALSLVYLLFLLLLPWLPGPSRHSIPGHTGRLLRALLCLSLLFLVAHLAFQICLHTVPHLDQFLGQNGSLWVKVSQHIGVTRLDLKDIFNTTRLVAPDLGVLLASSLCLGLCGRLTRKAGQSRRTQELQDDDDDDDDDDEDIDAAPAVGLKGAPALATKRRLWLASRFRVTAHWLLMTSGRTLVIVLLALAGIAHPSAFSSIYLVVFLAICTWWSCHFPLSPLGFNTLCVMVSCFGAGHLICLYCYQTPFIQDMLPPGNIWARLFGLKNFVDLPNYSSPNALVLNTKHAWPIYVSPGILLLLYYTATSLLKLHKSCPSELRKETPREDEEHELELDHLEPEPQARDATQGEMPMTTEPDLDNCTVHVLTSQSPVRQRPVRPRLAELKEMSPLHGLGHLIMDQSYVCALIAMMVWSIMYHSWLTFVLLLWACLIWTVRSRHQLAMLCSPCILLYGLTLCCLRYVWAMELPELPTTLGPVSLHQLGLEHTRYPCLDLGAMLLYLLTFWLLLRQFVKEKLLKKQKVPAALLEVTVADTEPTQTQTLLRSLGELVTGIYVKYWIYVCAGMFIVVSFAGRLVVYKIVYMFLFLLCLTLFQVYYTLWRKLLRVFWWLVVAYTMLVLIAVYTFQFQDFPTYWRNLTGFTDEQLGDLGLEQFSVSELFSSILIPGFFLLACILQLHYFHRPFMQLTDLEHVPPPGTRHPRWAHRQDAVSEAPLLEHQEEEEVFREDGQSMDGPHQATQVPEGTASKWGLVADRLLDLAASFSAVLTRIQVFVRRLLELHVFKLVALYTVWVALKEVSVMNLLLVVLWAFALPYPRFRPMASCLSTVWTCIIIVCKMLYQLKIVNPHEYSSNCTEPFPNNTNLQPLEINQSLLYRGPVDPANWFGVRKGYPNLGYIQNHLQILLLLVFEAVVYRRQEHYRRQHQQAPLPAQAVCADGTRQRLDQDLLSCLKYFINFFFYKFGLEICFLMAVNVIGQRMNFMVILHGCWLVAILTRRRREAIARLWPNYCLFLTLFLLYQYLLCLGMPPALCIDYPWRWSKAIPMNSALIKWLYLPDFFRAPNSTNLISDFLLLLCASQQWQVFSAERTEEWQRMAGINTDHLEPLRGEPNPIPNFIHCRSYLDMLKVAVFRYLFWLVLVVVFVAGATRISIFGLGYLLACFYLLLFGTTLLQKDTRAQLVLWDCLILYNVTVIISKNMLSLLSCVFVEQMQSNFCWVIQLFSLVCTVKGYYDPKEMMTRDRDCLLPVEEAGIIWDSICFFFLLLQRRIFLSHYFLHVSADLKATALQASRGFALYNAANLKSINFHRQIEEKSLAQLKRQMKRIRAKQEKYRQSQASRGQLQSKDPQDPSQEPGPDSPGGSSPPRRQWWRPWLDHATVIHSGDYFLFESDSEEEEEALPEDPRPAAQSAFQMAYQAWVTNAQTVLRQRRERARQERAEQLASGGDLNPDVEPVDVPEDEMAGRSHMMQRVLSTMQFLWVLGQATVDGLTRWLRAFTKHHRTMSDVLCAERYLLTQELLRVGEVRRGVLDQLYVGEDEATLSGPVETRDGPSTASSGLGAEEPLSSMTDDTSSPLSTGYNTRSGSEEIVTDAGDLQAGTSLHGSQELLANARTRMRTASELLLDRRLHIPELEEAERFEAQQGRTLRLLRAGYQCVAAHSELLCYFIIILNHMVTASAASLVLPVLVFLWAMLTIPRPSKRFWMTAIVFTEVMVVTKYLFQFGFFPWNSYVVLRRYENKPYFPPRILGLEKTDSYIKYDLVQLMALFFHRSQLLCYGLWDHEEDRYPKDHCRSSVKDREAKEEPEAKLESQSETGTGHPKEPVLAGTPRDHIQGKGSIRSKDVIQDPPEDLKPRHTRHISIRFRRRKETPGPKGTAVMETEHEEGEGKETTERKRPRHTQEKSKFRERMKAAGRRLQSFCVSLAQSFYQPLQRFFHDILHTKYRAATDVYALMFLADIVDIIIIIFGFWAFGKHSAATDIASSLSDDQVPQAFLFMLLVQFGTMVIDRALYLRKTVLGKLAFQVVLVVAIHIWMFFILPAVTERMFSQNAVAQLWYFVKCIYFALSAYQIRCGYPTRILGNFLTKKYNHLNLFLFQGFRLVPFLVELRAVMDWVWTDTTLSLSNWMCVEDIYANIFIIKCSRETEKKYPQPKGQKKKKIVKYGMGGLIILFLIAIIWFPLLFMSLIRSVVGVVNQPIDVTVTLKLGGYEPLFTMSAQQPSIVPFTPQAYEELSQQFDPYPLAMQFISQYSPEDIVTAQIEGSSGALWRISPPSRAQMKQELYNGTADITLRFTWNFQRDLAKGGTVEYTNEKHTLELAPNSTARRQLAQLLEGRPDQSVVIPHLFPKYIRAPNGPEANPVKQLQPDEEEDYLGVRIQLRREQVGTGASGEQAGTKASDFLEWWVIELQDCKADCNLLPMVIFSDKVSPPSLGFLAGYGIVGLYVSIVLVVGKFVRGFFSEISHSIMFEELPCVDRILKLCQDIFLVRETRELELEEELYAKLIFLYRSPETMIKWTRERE
Procedure: To identify Piezo1 stimulators, we treated MLO-Y4 cells with compounds Yoda1, YW-3-159, W-3-163, W-3-168-1, W-3-168-2, W-3-170, W-3-173-1, W-3-173-2, and YW-3-174. Gene expression of Wnt1, Ptgs2, and Tnfrsf11b was measured to determine the activation of Piezo1. In addition, intracellular calcium concentration was measured to determine the activity of Piezo1 channel. […] Yoda1 was used as a positive control in all experiments.

[1] = tested on: osteocyte-enriched cortical bone; assay: Wnt1 expression in tibia after one Yoda1 injection; format: in vivo; conditions: 4-month-old female C57BL/6J mice, one injection 5 μmol/kg intraperitoneally, tibiae 4 hours later
Procedure: To quantify cancellous bone formation, we injected mice with calcein (20 mg/kg body weight) intraperitoneally 7 and 3 days before harvest. To quantify periosteal and endocortical bone formation, we injected mice with calcein (20 mg/kg body weight) and Alizarin Red (20 mg/kg body weight) 10 and 3 days before harvest. For gene expression, we injected Yoda1 into 4-month-old female C57BL/6J mice one time and harvested tibiae 4 hours later for RNA extraction. For bone mass evaluation, we injected Yoda1 into 4-month-old female C57BL/6J mice 5 consecutive days per week for 2 weeks (day 1-5 and day 8-12) and harvested the mice at day 15 for analysis. […]
Quantitative PCR. […] We performed quantitative RT-PCR using the following Taqman assays from Applied Biosystems: Piezo1 (Mm01241549_m1); Piezo2 (Mm01265861_m1); Ptgs2 (Mm00478374_m1); Cyr61 (Mm00487498_m1); Wnt1 (Mm01300-555_g1); Yap1 (Mm011432-63_m1); Taz (Mm01289583_m1); Tnfsf11 Mm00441906_m1; Tnfrsf11b (Mm00435452_m1); Sost (Mm00470479_m1); and ribosomal protein S2 (Mrps2) (Mm00475529_m1). We calculated relative mRNA amounts using the ΔCt method (Livak and Schmittgen, 2001). […] We obtained two custom Taqman assays from Applied Biosystems for quantifying Piezo1 gene deletion efficiency: one specific for sequences between the loxP sites and the other specific for sequences downstream from the 3′ loxP site.

C57BL/6J mice [2] = assay: In vivo bone mass evaluation by μCT and body weight after 2 weeks of administration; conditions: 4-month-old female C57BL/6J mice, 5 μmol/kg intraperitoneally, 5 days per week for 2 weeks
Procedure: (§1) To quantify cancellous bone formation, we injected mice with calcein (20 mg/kg body weight) intraperitoneally 7 and 3 days before harvest. To quantify periosteal and endocortical bone formation, we injected mice with calcein (20 mg/kg body weight) and Alizarin Red (20 mg/kg body weight) 10 and 3 days before harvest. For gene expression, we injected Yoda1 into 4-month-old female C57BL/6J mice one time and harvested tibiae 4 hours later for RNA extraction. For bone mass evaluation, we injected Yoda1 into 4-month-old female C57BL/6J mice 5 consecutive days per week for 2 weeks (day 1-5 and day 8-12) and harvested the mice at day 15 for analysis. Yoda1 (Sigma, St. Louis, MO) was dissolved in DMSO at 40 mM as a stock, diluted in 5% ethanol, and injected intraperitoneally at 5 μmol/kg body weight. Mice were rank-ordered by body weight and then assigned to Veh or Yoda1 groups to give identical group means. All investigators involved in data collection were blinded as to the genotype and group of the mice.
Skeletal analysis. Tibial X-rays were obtained using an UltraFocus X-ray machine (Faxitron Bioptics, Tucson, Arizona) and BMD of the lumbar spine and femur were measured by dual-energy X-ray absorptiometry using a PIXImus Densitometer (GE-Lunar Corp.) Three dimensional bone volume and architecture of L4 vertebra, femur, and tibia were measured by μCT (model μCT40, Scanco Medical, Wayne, PA). The femur, vertebrae (L4), or tibia, were cleaned of soft tissues and fixed in 10% Millonig's formalin for 24 hours. Bone were then gradually dehydrated into 100% ethanol. Bone samples were loaded into a 12.3 mm diameter scanning tube and images acquired in the μCT40. The scans were integrated into 3D voxel images (1024×1024 pixel matrices for each individual planar stack) and a Gaussian filter (sigma=0.8, support=1) was used to reduce signal noise. Scanco Eval Program v.6.0 was used for measuring bone volume. A threshold of 220 mg/cm^3 was applied to all scans at medium resolution (E=55 kVp, I=145 μA, integration time=200 ms) for trabecular bone measurements. The cortical bone and the primary spongiosa were manually excluded from the analysis. Trabecular bone measurements at the distal femur were made on 151 slices beginning 8-10 slices away from the growth plate and proceeding proximally. […] All trabecular measurements were made by drawing contours every 10 to 20 slices and voxel counting was used for bone volume per tissue volume and sphere filling distance transformation indices, without pre-assumptions about the bone shape as a rod or plate for trabecular microarchitecture. Femoral cortical thickness, periosteal circumference, and endocortical circumference were measured at the mid-diaphysis. For tibial cortical thickness, we analyzed 18 slices 5 mm proximal from the distal tibiofibular junction. Vertebral cortical bone thickness was determined on the ventral cortical wall using contours of cross-sectional images, drawn to exclude trabecular bone. Cortical analysis were measured at a threshold of 260 mg/cm^3. Calibration and quality control were performed weekly using five density standards and spatial resolution was verified monthly using a tungsten wire rod. We based beam-hardening correction on the calibration records. Corrections for 200 mg hydroxyapatite were made for all energies.

C57BL/6J mice [3] = assay: Serum osteocalcin and CTX ELISA after 2 weeks of administration; format: in vivo; conditions: 4-month-old female C57BL/6J mice, 5 μmol/kg intraperitoneally, 5 days per week for 2 weeks
Procedure: as §1
Osteocalcin and CTX ELISA. Circulating osteocalcin and CTX in serum was measured using a mouse Osteocalcin enzyme immunoassay kit (Thermo Fisher) and RatLaps™ (CTX-I) EIA kit (Immunodiagnostic Systems, Boldon, UK) respectively according to the manual provided by manufacturers. Blood was collected by retro-orbital bleeding into 1.7 mL microcentrifuge tubes. […]

Fc1ccc(Cl)c(CSc2nnc(-c3cnccn3)s2)c1Cl [YW-3-170]
Piezo1 agonist activity (conclusion in words) (Piezo1; MLO-Y4 cells): potent agonists for Piezo1; also recorded: potent and specific Piezo1 agonists
activity in activating Piezo1 compared to Yoda1 (Piezo1; MLO-Y4 cells in vitro): comparable or superior activity

Clc1cccc(Cl)c1CSc1nnc(-c2cnccn2)s1 [Yoda1]
Wnt1 expression in osteocyte-enriched cortical bone in vivo [1]: increased
body weight (C57BL/6J mice [2]): did not alter
cancellous bone mass in the distal femur (C57BL/6J mice [2]): increased
cancellous bone volume in vertebrae (C57BL/6J mice [2]): did not detect changes
cortical thickness in the distal femur (C57BL/6J mice [2]): increased
cortical thickness in the vertebra (C57BL/6J mice [2]): increased
serum levels of CTX, a bone resorption marker (C57BL/6J mice [3]): did not observe changes
serum levels of osteocalcin, a bone formation marker (C57BL/6J mice [3]): increased
